Test results from patent US8049038B2, “Carnitine conjugates of adamantanamines derivatives as dual prodrugs for various uses” (priority 2006, dated 2011).

Tests used:
[1] = Toxicity observed in mice after subcutaneous administration in the NMDA test; format: in vivo; details: male NIH-Swiss mice; 120 mg/kg SC; n=8 mice/group
Procedure: (§1) Memantine (30 mg/kg; SC) was used as a positive control in each experiment and there were n=8 mice/group for all conditions.

NMDA receptors = assay: NMDA-induced seizure activity and lethality in mice (in vivo test for NMDA antagonist activity); details: male NIH-Swiss mice, 30 min before NMDA 200 mg/kg IP
From the text: Compounds 3-(3,5-dimethyladamantan-1-ylcarbamoyl)-(R)-2-hydroxypropyl)-trimethyl ammonium chloride [Formula 1(B); R1 and R2 are CH3; n=0], and 3-benzyloxycarbonyl-(R)-2-{[(3,5-dimethyladamantan-1-ylcarbamoyl)-propionyloxy]propyl}-trimethyl ammonium bromide [Formula 4(B); R1 and R2 are CH3; n=0; R3, R4, R5, R6 are hydrogen; and R^2 is a benzyl group] were selected for in vivo testing in mice, since both are potential prodrugs for memantine and L-carnitine through in vivo enzymatic hydrolysis of either an amide or ester linkages. Since memantine has N-methyl-D-aspartate (NMDA) antagonist properties, it was assumed that the above compounds would share these properties and therefore a test was utilized that identifies NMDA antagonist activity in vivo. Briefly, this test measures seizure activity and lethality in mice produced by the administration of NMDA […] which block these parameters in a dose-dependent manner (see Leander, J. D., et al., Brain Res. 448, 115-120 (1988), N-methyl-D-aspartate acid-induced lethality in mice: selective antagonism by phencyclidine-like drugs; Parsons, C. G., et al., Neuropharmacol. 34, 1239-1258 (1995).
as §1

SMILES	toxicity [1]	activity in NMDA-induced seizure/lethality test (NMDA receptors; 60 mg/kg SC)	time to lethality (NMDA receptors; 120 mg/kg SC, observed 30 min)	time to produce clonic seizures (NMDA receptors; 90 mg/kg SC, observed 30 min)	time to produce death (NMDA receptors; 90 mg/kg SC, observed 30 min)
CC12CC3CC(C)(C1)CC(NC(=O)C[C@@H](O)C[N+](C)(C)C)(C3)C2.[Cl-] [[3-(3,5-Dimethyl-adamantan-1-ylcarbamoyl)-(R)-2-hydroxy-propyl]-trimethylammonium chloride]	tremors, lethality in n=3 mice	inactive	slightly increased		
CC12CC3CC(C)(C1)CC(NC(=O)CCC(=O)O[C@H](CC(=O)OCc1ccccc1)C[N+](C)(C)C)(C3)C2.[Br-] [{3-Benzyloxycarbonyl-(R)-2-[3-(3,5-Dimethyladamantan-1-ylcarbamoyl)-propionyloxy]-propyl}-trimethylammonium bromide]				markedly increased	markedly increased
